What follows are compounds tested against EBI2 (Homo sapiens, UniProt P32249) (assay: Cell-based luminescent assay (EBI2 modulation)). Conditions: cell-based luminescence; 7a,25-OHC final assay concentration 80 nM; 60 minutes incubation; read-out: IC50.
Outline: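 Cells plated overnight at 37° C, then exposed to compound at 4-5 uM final with 80 nM 7a,25-OHC agonist for 60 min at 37° C. Luminescence read after 60 min detection at 25° C in the dark; values normalized to neutral and stimulator controls and plate-pattern corrected.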

EBI2, sequence (P32249 whole entry): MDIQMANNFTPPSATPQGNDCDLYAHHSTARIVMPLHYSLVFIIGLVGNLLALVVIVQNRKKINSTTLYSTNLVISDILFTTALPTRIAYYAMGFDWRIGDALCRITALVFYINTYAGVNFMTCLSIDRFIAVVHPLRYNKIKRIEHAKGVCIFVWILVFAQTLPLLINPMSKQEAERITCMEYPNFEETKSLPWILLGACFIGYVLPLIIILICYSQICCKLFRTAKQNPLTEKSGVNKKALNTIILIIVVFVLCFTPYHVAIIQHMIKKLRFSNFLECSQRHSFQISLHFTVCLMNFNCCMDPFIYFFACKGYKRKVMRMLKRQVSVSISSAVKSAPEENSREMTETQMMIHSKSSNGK

| Compound | IC50 |
| --- | --- |
| COc1ccc(C(=O)N2CCN(C(=O)C#Cc3ccc(Br)cc3)CC2)cc1 [Compound C10, 3-(4-bromophenyl)-1-{4-[(4-methoxyphenyl)carbonyl]piperazinyl}prop-2-yn-1-one] | < 100 nM |
| O=C(c1cc2ccc(Cl)cc2[nH]1)N1CCN(C(c2ccccc2)c2ccccc2)CC1 [Compound C104, 4-(diphenylmethyl)piperazinyl 6-chloroindol-2-yl ketone] | < 100 nM |
| 3-[4-(trifluoromethyl)phenyl]-1-(4-{[4-(trifluoromethyl)phenyl]methyl}piperazinyl)prop-2-yn-1-one [Compound C411] | 100 to 500 nM |
| (2E)-1-{4-[(3-methoxyphenyl)methyl]piperazinyl}-3-phenylprop-2-en-1-one [Compound C379] | < 100 nM |
| (2E)-1-{4-[(2,5-dimethoxyphenyl)sulfonyl]piperazinyl}-3-(4-fluorophenyl)prop-2-en-1-one [Compound C318] | < 100 nM |
| O=C(C#Cc1ccc(F)cc1F)N1CCN(C(=O)c2ccc(C(F)(F)F)cc2)CC1 [Compound C166, 3-(2,4-difluorophenyl)-1-(4-{[4-(trifluoromethyl)phenyl]carbonyl}piperazinyl)prop-2-yn-1-one] | 500 to 5000 nM |
| O=C(/C=C/c1ccc(Br)cc1)N1CCN(Cc2cc(F)cc(F)c2)CC1 [Compound C31, (2E)-1-{4-[(3,5-difluorophenyl)methyl]piperazinyl}-3-(4-bromophenyl)prop-2-en-1-one] | < 100 nM |
| 4-{[3-fluoro-4-(trifluoromethyl)phenyl]methyl}piperazinyl 5-(trifluoromethyl)indol-2-yl ketone [Compound C389] | < 100 nM |
| O=C(C#Cc1ccc(Br)cc1)N1CCN(C(=O)c2ccc(Br)cc2)CC1 [Compound C61, 3-(4-bromophenyl)-1-{4-[(4-bromophenyl)carbonyl]piperazinyl}prop-2-yn-1-one] | < 100 nM |
| CCOc1ccc(/C=C/C(=O)N2CCN(S(=O)(=O)c3ccc(Br)cc3)CC2)cc1 [Compound C213, (2E)-1-{4-[(4-bromophenyl)sulfonyl]piperazinyl}-3-(4-ethoxyphenyl)prop-2-en-1-one] | < 100 nM |
| O=C(c1cc2ccc(Br)cc2[nH]1)N1CCN(Cc2ccc(Br)cc2)CC1 [Compound C180, 6-bromoindol-2-yl 4-[(4-bromophenyl)methyl]piperazinyl ketone] | 500 to 5000 nM |
| O=C(/C=C/c1ccc(Cl)cc1F)N1CCN(C(c2ccccc2)c2ccccc2)CC1 [Compound C40] | < 100 nM |
| 3-(4-fluorophenyl)-1-{4-[(4-fluorophenyl)methyl]piperazinyl}prop-2-yn-1-one [Compound C446] | 100 to 500 nM |
| Cc1ccc(S(=O)(=O)N2CCN(C(=O)/C=C/c3ccc(F)cc3)CC2)cc1 [Compound C124, (2E)-3-(4-fluorophenyl)-1-{4-[(4-methylphenyl)sulfonyl]piperazinyl}prop-2-en-1-one] | < 100 nM |
| O=C(C#Cc1ccc2c(c1)OCO2)C1CCN(C(=O)c2ccc(F)cc2)CC1 [Compound C112, 3-(2H-benzo[3,4-d]1,3-dioxolen-5-yl)-1-{1-[(4-fluorophenyl)carbonyl](4-piperidyl)}prop-2-yn-1-one] | < 100 nM |
| O=C(C#Cc1ccc(F)cc1)N1CCN(C(=O)c2ccc(F)cc2)CC1 [Compound C128, 3-(4-fluorophenyl)-1-{4-[(4-fluorophenyl)carbonyl]piperazinyl}prop-2-yn-1-one] | < 100 nM |
| O=C(/C=C/c1ccccc1)N1CCN(Cc2ccc([N+](=O)[O-])cc2)CC1 [Compound C161, (2E)-1-{4-[(4-nitrophenyl)methyl]piperazinyl}-3-phenylprop-2-en-1-one] | < 100 nM |
| O=C(c1ccc2nc(C(F)(F)F)[nH]c2c1)N1CCN(C(=O)c2cc3cc(Cl)ccc3[nH]2)CC1 [Compound C183, 5-chloroindol-2-yl 4-{[2-(trifluoromethyl)benzimidazol-5-yl]carbonyl}piperazinyl ketone] | 500 to 5000 nM |
| O=C(c1cc2ncccc2[nH]1)N1CCN(C(c2ccccc2)c2ccccc2)CC1 [Compound C193, 4-(diphenylmethyl)piperazinyl pyrrolo[4,5-b]pyridin-2-yl ketone] | 500 to 5000 nM |

Results, then the compound that gave them:

| IC50 | Compound |
| --- | --- |
| 100 to 500 nM | O=C(c1cc2cc(Cl)ccc2[nH]1)N1CCN(Cc2ccc(F)c(C(F)(F)F)c2)CC1 [Compound C420, 5-chloroindol-2-yl 4-{[4-fluoro-3-(trifluoromethyl)phenyl]methyl}piperazinyl ketone] |
| 100 to 500 nM | O=C(/C=C/c1ccccc1)N1CCN(CCOc2ccc(Cl)cc2Cl)CC1 [Compound C407, (2E)-1-{4-[2-(2,4-dichlorophenoxy)ethyl]piperazinyl}-3-phenylprop-2-en-1-one] |
| 500 to 5000 nM | O=C(c1cc2cc(Cl)ccc2[nH]1)N1CCC(N2CCOCC2)CC1 [Compound C199, 5-chloroindol-2-yl 4-morpholin-4-ylpiperidyl ketone] |
| < 100 nM | O=C(/C=C/c1ccc(F)cc1)N1CCN(S(=O)(=O)c2cc(Cl)ccc2Cl)CC1 [Compound C225, (2E)-1-{4-[(2,5-dichlorophenyl)sulfonyl]piperazinyl}-3-(4-fluorophenyl)prop-2-en-1-one] |
| < 100 nM | CN(C)c1ccc(/C=C/C(=O)N2CCN(C(c3ccccc3)c3ccccc3)CC2)cc1 [Compound C233, (2E)-3-[4-(dimethylamino)phenyl]-1-[4-(diphenylmethyl)piperazinyl]prop-2-en-1-one] |
| < 100 nM | O=C(c1cnc2ccc(Cl)cc2c1)N1CCN(C(c2ccccc2)c2ccccc2)CC1 [Compound C257, 4-(diphenylmethyl)piperazinyl 6-chloro(3-quinolyl) ketone] |
| 100 to 500 nM | O=C(C#Cc1ccc(Br)cc1)N1CCN(Cc2ccc(C(F)(F)F)cc2)CC1 [Compound C408, 3-(4-bromophenyl)-1-(4-{[4-(trifluoromethyl)phenyl]methyl}piperazinyl)prop-2-yn-1-one] |
| < 100 nM | O=C(c1cc2cc(Cl)ccc2[nH]1)N1CCC(Oc2cccc(Cl)c2)CC1 [Compound C272, 5-chloroindol-2-yl 4-(3-chlorophenoxy)piperidyl ketone] |
| < 100 nM | CCN1CCN(C(=O)/C=C/c2ccc(Br)cc2)CC1 [Compound C222, (2E)-3-(4-bromophenyl)-1-(4-ethylpiperazinyl)prop-2-en-1-one] |
| 500 to 5000 nM | O=C(c1ccc(P(=O)(O)O)cc1)N1CCN(C(=O)c2cc3cc(Cl)ccc3[nH]2)CC1 [Compound C194, 5-chloroindol-2-yl 4-[(4-phosphonophenyl)carbonyl]piperazinyl ketone] |

From patent US9776979B2, “EBI2 modulators” (Sanford-Burnham Medical Research Institute, priority 2013, dated 2017)
